From EP4410284A1, “COMPOUND AND METHOD FOR THE TREATMENT OF ZELLWEGER SPECTRUM DISORDER” (Apteeus, priority 2023, dated 2024)
Counter-ions that a name gives are not always drawn.

Columns and labels:
Format in all cases: cell-based, human
[1] = test system: GM16513 cells; test: Catalase import immunofluorescence, high-content screening (% importing cells); conditions: GM16513 cells, 3 days; for EC50 / Emax: Homo sapiens, 72 h, dose response with 6 concentrations; for EC50: read-out: EC50; for Emax: read-out: Max Efficacy (% Importing cells)
Protocol: Primary fibroblasts were seeded at 500-700 cells per well in 384-well plates and grown at 37°C overnight. Cells were treated with test compounds or 0.1% DMSO for 3 days. After 3 days and a wash with PBS, cells were fixed with 4% paraformaldehyde (Electron Microscopy Sciences) in PBS for 20 minutes. After 3 washes with PBS, the cells were permeabilized and blocked with 0.3% Triton X-100, 1% BSA in PBS for 30 minutes at room temperature followed by 3 washes with 1% BSA in PBS. The cells were incubated with a rabbit Catalase polyclonal antibody (#12980 Cell signaling) overnight at 4°C. Following 3 washes with PBS containing 0.1% Tween-20, the cells were incubated for 1 h at room temperature with a conjugated goat anti-rabbit secondary antibody Alexa Fluor 647 (Ab150083-Abcam). The cells were then washed 3 times with PBS and Hoechst 33342 (H3570-ThermoFisher Scientific) + HCS Cellmask Blue (H32720 - ThermoFisher Scientific) staining was performed at 0.1 µg/ml and 0.4 µg/mL respectively for 30 minutes at room temperature. The cells were finally washed 3 times with PBS and fluorescent images were acquired using the INCell Analyzer 6000 imaging platform (GE Healthcare Life Sciences).
Images analysis was done using Columbus analysis software (PerkinElmer). DAPI channel was used to find nuclei (Hoechst 33342) and cytoplasm (HCS CellMask Blue) and border objects were removed. Cy5 channel (AlexaFluor 647) was used to find spots corresponding to peroxisomes which correctly import catalase. […] The number of importing or non-importing cells was calculated. Finally, results were expressed as % of importing cells.
The cytotoxicity was assessed in parallel using a double nucleus staining with Hoechst 33342 and Propidium Iodide (PI).
The EC50 and maximum efficacy of these inhibitors were determined.

[2] = test system: GM16513 cells; test: Plasmalogens synthesis (LC-MS/MS)
Protocol: (§1) The assay was performed in T75 culture flasks for 3 or 10 days. The medium was replaced by fresh medium every 2-3 days. After 3 or 10 days, the cells were harvested and lysated in water (100-200 µL) by freeze/thaw cycle and sonication for 5 min. Total proteins were quantified using BCA assay and 100 µg of total proteins were used for each sample.
(§2) After cell lysis, the samples were dried using a rotating evaporator (Genevac EZ-2, SP Scientific), set at 40°C for 2h under vacuum. Then a solution containing water/acetonitrile 20/80 v/v was added to the wells. Before analysis, the samples were centrifuged at 4000 rpm for 20 min at room temperature. For the separation of plasmalogens by liquid chromatography, a Waters Acquity ultra-performance liquid chromatography (UPLC) system (Acquity I-Class, Waters) was used. A Waters Acquity UPLC BEH (Ethylene Bridged Hybrid) C8 column (2.1 × 50mm, particle size 1.7 µm, pore size 130 A, 2.1mm inner diameter) preceded by a metal pre-filter (KrudKatcher Ultra HPLC In-Line Filter, AF0-8497, Phenomenex) was used for separation. The column temperature was maintained at 50°C. The injection volume was 5µL for each analysis. The mobile phase A was composed of water + 0.1% formic acid and the mobile phase B was methanol + 0.1% formic acid. The separation was done using a gradient, with a flow rate set at 0.7 mL/min throughout the separation:
(§3) During analysis, the samples were kept at 10°C, and 5 µL of each sample were injected. After separation by liquid chromatography, the analytes were subjected to MS/MS analysis using a Waters Xevo TQSmicro system (Waters). The analytes were ionized using positive electrospray ionization (positive ESI). The molecules were analyzed using MRM mode. The analyzed plasmalogens contained moieties with C16:0, C18:0, C18:1 at the sn-1 position and fatty acid of chain-length 18 to 24 with 1 to 6 unsaturations at the sn-2 position. […] The cellular levels of plasmalogens were calculated using the area of each plasmalogen divided by protein quantity. […] The acquired data were analyzed by the Waters MassLynx software.

[3] = test system: PEX405 cells; test: Plasmalogens synthesis (LC-MS/MS); conditions: treatment over 3 days
Protocol: as §1, §2, §3

[4] = test system: PEX405 cells; test: Beta-oxidation of d4-C24:0 (LC-MS/MS); conditions: 3 days of treatment, dose response manner
Protocol: Degradation (to d4-C16:0) and elongation (to d4-C26:0 and d4-C28:0) of d4-VLCFA (very long chain fatty acid) in the cells was measured using d4-C24:0 as substrate (D-6145-CDN isotopes). D4-C24:0 was solubilized in culture medium using α-cyclodetrin, with a molar ratio of d4-C24:0:α-cyclodextrin 1:50. Cyclodextrins, which are cyclic oligosaccharides, are commonly used to solubilize fatty acids by complexation, for supplementation of cell culture media, and serve as vehicle to deliver fatty acids to the cells. Cyclodextrins have a polar surface and a hydrophobic cylindrical cavity that can bind and solubilize a wide variety of hydrophobic molecules, such as fatty acids, while remaining soluble in water. The assay was performed in T75 culture flasks for 3 or 10 days. The medium was replaced by fresh medium every 2-3 days and supplemented with d4-C24:0 for the last 3 days. After 3 or 10 days, cells were harvested and lysated in water (100-200 µL) by freeze/thaw cycle and sonication for 5 min. Total proteins were quantified using BCA assay and 100 µg of total proteins were used for each sample.
After cell lysis, the samples were dried using a rotating evaporator (Genevac EZ-2, SP Scientific), set at 40°C for 2h under vacuum. After evaporation, a hydrolysis mix consisting of 90% acetonitrile and 10% NaOH 1N in water was added to the samples. The samples were incubated for 1h at room temperature under stirring (300 rpm). After hydrolysis, the samples were evaporated using a Genevac device, under vacuum, at 40°C for 2h.
Derivation of free fatty acids was done using a 2.5 mg/mL Na2CO3 solution in DMF and a 2.5 mg/mL TMAE (trimethylammoniumethyl) reagent solution in DMF. The solutions were mixed in a 1:1 ratio, and 200 µL of the mix was added to dry samples to be derived. For the derivation, the samples were incubated for 3h at 50°C. DMF was then evaporated using a Genevac™ device, under vacuum, at 60°C for 4h.
Before injection, the samples were solubilized in a 90/10 acetonitrile/isopropanol mixture with 1% HCl. After solubilization, the samples were stirred and centrifuged at 4000 rpm for 20 min at 10°C.
For the separation of the derived fatty acids by liquid chromatography, a Waters Acquity ultra-performance liquid chromatography (UPLC) system (Acquity I-Class, Waters) was used. […]
After separation by liquid chromatography, the analytes were subjected to MS analysis using a Waters Xevo TQSmicro system (Waters). […] The molecules were analyzed using MRM (multiple reaction monitoring) mode, with the main daughter ion for each derived fatty acid corresponding to the loss of a trimethylammonium moiety (m/z 59). Derived FAs with a chain length from 16 to 28, with no or one unsaturation, were analyzed. […] The acquired data were analyzed by the Waters MassLynx software.

Row | Compound | % Importing cells ([1]; 1.3 µM) | % Importing cells ([1]; 10 µM) | EC50 [1] | Emax [1] | plasmalogen levels ([2]; 0.5 µM over 3 or 10 days) | plasmalogen levels ([2]; treatment over 3 days) | plasmalogen levels [3] | d4-C16,C18,C20 and C22 levels [4]
1 | O=C(/C=C/c1cccc(S(=O)(=O)Nc2ccccc2)c1)NO [Belinostat] | 95% | 97% | 200 nM | 98% | increased |  |  | 
2 | CCN(CC)Cc1ccc2cc(COC(=O)Nc3ccc(C(=O)NO)cc3)ccc2c1 [Givinostat (hydrochloride monohydrate), Givinostat] | 81% | 32% | 170 nM | 80% |  | increased | increased | increase
